The assay concerns patients with Amyotrophic Lateral Sclerosis. The assay is described as follows: Patients with Amyotrophic Lateral Sclerosis, ALSFRS-R functional scale. Conditions: for ALSFRS-R before treatment: baseline. The assay is classed as in vivo, human. As for the experimental part: Forty patients with definite diagnosis of Amyotrophic Lateral Sclerosis were treated with EGF 0.6 μg/kg of body weight, and GHRP6 60 μg/kg of body weight, intravenously, every other day, during 6 months, together with Rilutek® (Riluzole). Previously, these patients were stratified according to the origin of the disease, spinal (n=25) or bulbar (n=15). Another group of 30 patients with definite diagnosis of Amyotrophic Lateral Sclerosis, also stratified according to origin, spinal (n=21) or bulbar (n=9), were treated only with Rilutek®.
Before the beginning and after the end of the trial, all patients were evaluated using the functional scale for Amyotrophic Lateral Sclerosis (ALSFRS-R). The ALSFRS-R scale is usually used for the neurological and functional evaluation of patients with said disease. This scale includes various functional items, such as those related to language, salivation, swallowing, the ability to write, handling eating utensils, dressing and sanitizing, turning in bed, climbing stairs, and breathing.

The values below come from patent US20210196793A1, “Pharmaceutical Combination Comprising Epidermal Growth Factor and Secretagogue Peptide GHRP6 for the Restoration of Brain Damage” (CENTRO DE INGENIERÍA GENÉTICA Y BIOTECNOLOGÍA, priority 2018, published 2021).

Regarding `Nc1nc2ccc(OC(F)(F)F)cc2s1` [Rilutek ®, Riluzole], the “clinical improvement (salivation, swallowing, breathing, dysarthria)” value (after 6 months of treatment, spinal and bulbar onset) is reported as “None of the latter was observed”. Further, the “ALSFRS-R after the treatment” value (bulbar origin, after 6 months of treatment) was 33.1 ± 8.32 and the “ALSFRS-R after the treatment” value (spinal origin, after 6 months of treatment) is reported as 38.2 ± 3.34. Moreover, the ALSFRS-R before treatment is, setting by setting: (bulbar origin) 35.1 ± 6.2; (spinal origin) 38.7 ± 4.4.
